{"source": "patent US20240158392A1", "about": "(Janssen Biotech, Inc., priority 2021, published 2024)"}
{"target": "SIK2 (Homo sapiens, UniProt Q9H0K1)", "sequence (Q9H0K1 whole entry, species assumed)": "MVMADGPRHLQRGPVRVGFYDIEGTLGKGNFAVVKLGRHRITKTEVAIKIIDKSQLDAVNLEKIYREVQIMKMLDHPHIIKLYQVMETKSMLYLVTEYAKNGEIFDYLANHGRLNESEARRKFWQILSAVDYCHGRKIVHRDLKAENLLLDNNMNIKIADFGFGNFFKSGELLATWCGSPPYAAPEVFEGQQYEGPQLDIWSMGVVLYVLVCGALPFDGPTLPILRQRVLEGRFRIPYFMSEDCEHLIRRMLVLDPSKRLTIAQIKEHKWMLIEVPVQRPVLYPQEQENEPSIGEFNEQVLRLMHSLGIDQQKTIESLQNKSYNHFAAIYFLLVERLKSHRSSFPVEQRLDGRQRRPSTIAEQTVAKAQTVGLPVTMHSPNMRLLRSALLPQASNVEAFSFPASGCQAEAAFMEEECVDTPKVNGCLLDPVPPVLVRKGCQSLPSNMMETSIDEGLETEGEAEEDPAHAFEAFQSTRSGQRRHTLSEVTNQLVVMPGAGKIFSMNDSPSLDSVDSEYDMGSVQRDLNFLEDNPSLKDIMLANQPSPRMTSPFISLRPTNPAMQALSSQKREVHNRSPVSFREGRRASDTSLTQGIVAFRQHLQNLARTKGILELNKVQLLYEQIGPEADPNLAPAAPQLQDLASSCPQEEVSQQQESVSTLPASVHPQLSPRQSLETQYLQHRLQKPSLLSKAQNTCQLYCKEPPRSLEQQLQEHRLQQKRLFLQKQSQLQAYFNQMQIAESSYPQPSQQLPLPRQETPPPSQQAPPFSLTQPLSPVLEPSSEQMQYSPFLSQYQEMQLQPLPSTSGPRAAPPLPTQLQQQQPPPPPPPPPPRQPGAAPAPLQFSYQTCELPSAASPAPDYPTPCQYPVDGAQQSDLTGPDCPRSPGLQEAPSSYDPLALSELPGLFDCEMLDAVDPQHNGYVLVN", "experiment": "SIK2 Enzymatic Assay High Version 2 (High ATP)", "format": "biochemical", "conditions": "not given", "procedure,_shortened": "(§1)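 At room temperature, enzyme (6 nM, 2× final) was preincubated with compound for 30 min, then 6 mM ATP and 400 μM HDAC5tide (both 2× final) were added for 2 h. ADP formed was measured by ADP-Glo Max (2 h reagent, 1 h detection) using luminescence.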", "units": {"IC50": "µM"}}
{"smiles": "Cc1cc(-c2ccn3nc(NC(=O)C4CC4)cc3c2)c(OC[C@H]2CCN2C)cn1", "note": "[Example 468, N-[5-[2-methyl-5-[[(2R)-1-methylazetidin-2-yl]methoxy]-4-pyridyl]pyrazolo[1,5-a]pyridin-2-yl]cyclopropanecarboxamide]", "IC50": 0.00813}
{"smiles": "O=C(Nc1cc2cc(-c3cc(C(F)F)ccc3O[C@H]3C[C@H]4COC[C@@H](C3)N4)ccn2n1)C1CC1", "note": "[Example 481, N-[5-[5-(difluoromethyl)-2-[[(1R,5S)-3-oxa-9-azabicyclo[3.3.1]nonan-7-yl]oxy]phenyl]pyrazolo[1,5-a]pyridin-2-yl]cyclopropanecarboxamide]", "IC50": "< 0.000847"}
{"smiles": "Cc1cc(-c2ccn3nc(NC(=O)C4CC4)cc3c2)c(OC[C@H]2CCN2CCF)cn1", "note": "[Example 529, N-[5-[5-[[(2R)-1-(2-fluoroethyl)azetidin-2-yl]methoxy]-2-methyl-4-pyridyl]pyrazolo[1,5-a]pyridin-2-yl]cyclopropanecarboxamide]", "IC50": 0.000963}
{"smiles": "Cc1cc(Nc2cc3cc(-c4cc(Cl)ncc4O[C@@H]4[C@@H]5CO[C@H]4CN5)ccn3n2)nc(C)n1", "note": "[Example 495, 5-[2-chloro-5-[[(1S,4S,7R)-2-oxa-5-azabicyclo[2.2.1]heptan-7-yl]oxy]-4-pyridyl]-N-(2,6-dimethylpyrimidin-4-yl)pyrazolo[1,5-a]pyridin-2-amine]", "IC50": 0.0134}
{"smiles": "CNC(=O)c1cccc(Nc2cc3cc(-c4cc(C)ncc4O[C@H]4C[C@H]5COC[C@@H](C4)N5C)ccn3n2)n1", "note": "[Example 407, N-methyl-6-[[5-[2-methyl-5-[[(1S,5R,7s)-9-methyl-3-oxa-9-azabicyclo[3.3.1]nonan-7-yl]oxy]-4-pyridyl]pyrazolo[1,5-a]pyridin-2-yl]amino]pyridine-2-carboxamide]", "IC50": 0.00849}
{"smiles": "Cc1cc(Nc2cc3cc(-c4cc(C)ncc4O[C@H]4C[C@H]5COC[C@@H](C4)N5)ccn3n2)ncn1", "note": "[Example 396, 5-[2-methyl-5-[[(1R,5S,7s)-3-oxa-9-azabicyclo[3.3.1]nonan-7-yl]oxy]-4-pyridyl]-N-(6-methylpyrimidin-4-yl)pyrazolo[1,5-a]pyridin-2-amine]", "IC50": 0.0011}
{"smiles": "Cc1cc(-c2cc3cc(NC(=O)C4CC4)nn3cn2)c(O[C@H]2C[C@H]3COC[C@@H](C2)N3C)cn1", "note": "[Example 319, N-[5-[2-methyl-5-[[(1S,5R)-9-methyl-3-oxa-9-azabicyclo[3.3.1]nonan-7-yl]oxy]-4-pyridyl]pyrazolo[1,5-c]pyrimidin-2-yl]cyclopropanecarboxamide]", "IC50": 0.00194}
{"target": "SIK2 (Homo sapiens, UniProt Q9H0K1)", "experiment": "SIK2 Enzymatic Assay High Version 2 (High ATP)", "format": "biochemical", "conditions": "enzyme 6 nM, 6 mM ATP and 400 μM HDAC5tide (each 2× final concentration); 30 minutes pre-incubation, 2 hours; ADP-Glo Max luminescence; read-out: SIK2 high ATP IC50 (μM) (Test Example 2)", "procedure,_shortened": "as §1", "units": {"IC50": "µM"}}
{"smiles": "Cc1cc(-c2ccn3nc(Nc4cc(C)nc(C)n4)cc3c2)c(O[C@H]2CC[C@H](S(C)(=O)=O)CC2)cn1", "note": "[Example 266, N-(2,6-dimethylpyrimidin-4-yl)-5-[2-methyl-5-(4-methylsulfonylcyclohexoxy)-4-pyridyl]pyrazolo[1,5-a]pyridin-2-amine]", "IC50": 0.00338}
{"smiles": "Cc1cc(-c2ccn3nc(NC(=O)C4CC4)cc3c2)c(O[C@H]2CCNC2)cn1", "note": "[Example 277, N-[5-[2-methyl-5-[(3S)-pyrrolidin-3-yl]oxy-4-pyridyl]pyrazolo[1,5-a]pyridin-2-yl]cyclopropanecarboxamide]", "IC50": 0.0139}
{"smiles": "Cn1nc(Nc2cc3cc(-c4cc(OCC(F)F)ncc4OCC(C)(C)C#N)ccn3n2)ccc1=O", "note": "[Example 697, 3-[[6-(2,2-difluoroethoxy)-4-[2-[(1-methyl-6-oxo-pyridazin-3-yl)amino]pyrazolo[1,5-a]pyridin-5-yl]-3-pyridyl]oxy]-2,2-dimethyl-propanenitrile]", "IC50": 0.021}
{"smiles": "CCc1nc(C)cc(Nc2cc3cc(-c4cc(C)ncc4O[C@H]4CC[C@H](O)CC4)ccn3n2)n1", "note": "[Example 224, (1r,4r)-4-((4-(2-((2-ethyl-6-methylpyrimidin-4-yl)amino)pyrazolo[1,5-a]pyridin-5-yl)-6-methylpyridin-3-yl)oxy)cyclohexan-1-ol]", "IC50": 0.00127}
{"smiles": "COc1cc(Nc2cc3cc(-c4cc(C)ncc4OCC(C)(C)O)ccn3n2)cc(OC)c1", "note": "[Example 646, 1-[[4-[2-(3,5-dimethoxyanilino)pyrazolo[1,5-a]pyridin-5-yl]-6-methyl-3-pyridyl]oxy]-2-methyl-propan-2-ol]", "IC50": 0.0313}
{"smiles": "Cc1cc(-c2ccn3nc(Nc4cc(C)nc(C)n4)cc3c2)c(OC[C@@H]2CC3(CCCC3)CO2)cn1", "note": "(single isomer, unassigned) [Example 219, (*S)—N-(2,6-dimethylpyrimidin-4-yl)-5-[2-methyl-5-(8-oxaspiro[4.4]nonan-7-ylmethoxy)-4-pyridyl]pyrazolo[1,5-a]pyridin-2-amine]", "IC50": 0.0497}
{"smiles": "Cn1ccc(Nc2cc3cc(-c4cc(OC(F)F)ncc4OCC(C)(C)C#N)ccn3n2)n1", "note": "[Example 714, 3-[[6-(difluoromethoxy)-4-[2-[(1-methylpyrazol-3-yl)amino]pyrazolo[1,5-a]pyridin-5-yl]-3-pyridyl]oxy]-2,2-dimethyl-propanenitrile]", "IC50": 0.00617}
{"smiles": "Cc1cc(-c2ccn3nc(NC(=O)C4CC4)cc3c2)c(OC[C@]23C[C@H](CO2)N(C)C3)cn1", "note": "[Example 249, N-[5-[2-methyl-5-[[(1R,4R)-2-methyl-5-oxa-2-azabicyclo[2.2.1]heptan-4-yl]methoxy]-4-pyridyl]pyrazolo[1,5-a]pyridin-2-yl]cyclopropanecarboxamide]", "IC50": 0.0237}
{"smiles": "Cc1cc(-c2ccn3nc(Nc4cc(C)nc(C(=O)NCC(C)(C)O)n4)cc3c2)c(OCC(C)(C)O)cn1", "note": "[Example 647, 4-[[5-[5-(2-hydroxy-2-methyl-propoxy)-2-methyl-4-pyridyl]pyrazolo[1,5-a]pyridin-2-yl]amino]-N-(2-hydroxy-2-methyl-propyl)-6-methyl-pyrimidine-2-carboxamide]", "IC50": 0.117}
{"smiles": "COC1(COc2cnc(C)cc2-c2ccn3nc(NC(=O)C4CC4)cc3c2)CNC1", "note": "[Example 233, N-[5-[5-[(3-methoxyazetidin-3-yl)methoxy]-2-methyl-4-pyridyl]pyrazolo[1,5-a]pyridin-2-yl]cyclopropanecarboxamide]", "IC50": 0.00309}
{"smiles": "Cc1cc(-c2ccn3nc(Nc4cccc(C)n4)cc3c2)c(OC[C@@H]2CNCCO2)cn1", "note": "[Example 426, 5-[2-methyl-5-[[(2S)-morpholin-2-yl]methoxy]-4-pyridyl]-N-(6-methyl-2-pyridyl)pyrazolo[1,5-a]pyridin-2-amine]", "IC50": 0.00403}
{"smiles": "Cc1cc(-c2ccn3nc(Nc4cc(C)nc(C)n4)cc3c2)c(OCC2(CO)COC2)cn1", "note": "[Example 274, [3-[[4-[2-[(2,6-dimethylpyrimidin-4-yl)amino]pyrazolo[1,5-a]pyridin-5-yl]-6-methyl-3-pyridyl]oxymethyl]oxetan-3-yl]methanol]", "IC50": 0.0291}
{"smiles": "Cc1cc(Nc2cc3cc(-c4cc(C#N)ccc4O[C@H]4CC[C@H](O)CC4)ccn3n2)nc(C)n1", "note": "[Example 483, 3-[2-[(2,6-dimethylpyrimidin-4-yl)amino]pyrazolo[1,5-a]pyridin-5-yl]-4-(4-hydroxycyclohexoxy)benzonitrile]", "IC50": 0.0443}
{"smiles": "Cc1cc(Nc2cc3cc(-c4cc(C)ncc4OCC(C)(C)O)ccn3n2)nc(C(=O)NC2CC2)c1", "note": "[Example 638, N-cyclopropyl-6-[[5-[5-(2-hydroxy-2-methyl-propoxy)-2-methyl-4-pyridyl]pyrazolo[1,5-a]pyridin-2-yl]amino]-4-methyl-pyridine-2-carboxamide]", "IC50": 0.149}
{"smiles": "Cc1nccc(Nc2cc3cc(-c4cc(OC(F)F)ncc4OCC(C)(C)C#N)ccn3n2)n1", "note": "[Example 717, 3-[[6-(difluoromethoxy)-4-[2-[(2-methylpyrimidin-4-yl)amino]pyrazolo[1,5-a]pyridin-5-yl]-3-pyridyl]oxy]-2,2-dimethyl-propanenitrile]", "IC50": 0.00142}
{"smiles": "Cc1cc(-c2ccn3nc(Nc4cc(C)nc(C5CC5)n4)cc3c2)c(OCC(C)(C)O)cn1", "note": "[Example 229, 1-[[4-[2-[(2-cyclopropyl-6-methyl-pyrimidin-4-yl)amino]pyrazolo[1,5-a]pyridin-5-yl]-6-methyl-3-pyridyl]oxy]-2-methyl-propan-2-ol]", "IC50": 0.00587}
{"smiles": "CCNc1nc(Nc2cc3cc(-c4cc(OC(F)F)ncc4OCC(C)(C)C#N)ccn3n2)cc(C(F)(F)F)n1", "note": "[Example 700, 3-[[6-(difluoromethoxy)-4-[2-[[2-(ethylamino)-6-(trifluoromethyl)pyrimidin-4-yl]amino]pyrazolo[1,5-a]pyridin-5-yl]-3-pyridyl]oxy]-2,2-dimethyl-propanenitrile]", "IC50": 0.00786}
{"smiles": "Cc1cc(Nc2cc3cc(-c4cc(C(F)F)ncc4OCC(C)(C)O)ccn3n2)nc(C)n1", "note": "[Example 493, 1-[[6-(difluoromethyl)-4-[2-[(2,6-dimethylpyrimidin-4-yl)amino]pyrazolo[1,5-a]pyridin-5-yl]-3-pyridyl]oxy]-2-methyl-propan-2-ol]", "IC50": 0.0662}
{"smiles": "Cc1cc(-c2ccn3nc(NC(=O)C4CC4)cc3c2)c(O[C@H]2CC[C@@](O)(c3ccccc3)CC2)cn1", "note": "[Example 192, N-(5-(5-(((1r,1r)-4-hydroxy-4-phenylcyclohexyl)oxy)-2-methylpyridin-4-yl)pyrazolo[1,5-a]pyridin-2-yl)cyclopropanecarboxamide]", "IC50": 0.0612}
{"smiles": "Cc1cc(-c2ccn3nc(Nc4cc(C)nc(C)n4)cc3c2)c(O[C@@H]2CNC[C@@H]2F)cn1", "note": "[Example 278, N-(2,6-dimethylpyrimidin-4-yl)-5-[5-[(3R,4S)-4-fluoropyrrolidin-3-yl]oxy-2-methyl-4-pyridyl]pyrazolo[1,5-a]pyridin-2-amine]", "IC50": 0.0025}
{"smiles": "COc1cc(Nc2cc3cc(-c4cc(C)ncc4O[C@H]4CC[C@H](O)CC4)ccn3n2)cc(F)c1C(=O)NC1CC1", "note": "[Example 649]", "IC50": 0.166}
{"smiles": "CN1CC(Oc2cnc(Cl)cc2-c2ccn3nc(NC(=O)C4CC4)cc3c2)C1", "note": "[Example 491, N-[5-[2-chloro-5-(1-methylazetidin-3-yl)oxy-4-pyridyl]pyrazolo[1,5-a]pyridin-2-yl]cyclopropanecarboxamide]", "IC50": 0.0152}
{"smiles": "Cc1cc(-c2ccn3nc(Nc4cc(C)nc(C)n4)cc3c2)c(OCCC2(C#N)COC2)cn1", "note": "[Example 722, 3-[2-[[4-[2-[(2,6-dimethylpyrimidin-4-yl)amino]pyrazolo[1,5-a]pyridin-5-yl]-6-methyl-3-pyridyl]oxy]ethyl]oxetane-3-carbonitrile]", "IC50": 0.01}
